Test results taken from ChEMBL document CHEMBL1156829 (Proc Natl Acad Sci U S A, 2008).
Square brackets hold non-standard residues; d marks the D form. Peptide text beside a SMILES is read from it. * marks the point of attachment. NHCH2CH2OH = OCCN*; For = O=C*

Key:
[1] = test system: Plasmodium falciparum; assay: NOVARTIS: Inhibition of Plasmodium falciparum 3D7 (drug-susceptible) proliferation in erythrocyte-based infection assay; type: functional, organism-based; conditions: Plasmodium falciparum, 3D7
[2] = test system: Plasmodium falciparum; assay: NOVARTIS: Inhibition of Plasmodium falciparum W2 (drug-resistant) proliferation in erythrocyte-based infection assay; type: functional, organism-based
[3] = NOVARTIS: Cytotoxicity against human hepatocellular carcinoma cell line (Huh7); type: toxicity, cell-based, Huh-7; conditions: Huh7 cells (hepatocellular carcinoma cell line)
[4] = Plasmodium falciparum, W2, read-out: EC50

| Compound | EC50 [1] | EC50 [2, 4] | CC50 [3] | EC50 [2] |
| --- | --- | --- | --- | --- |
| CCOc1ccccc1NC(=O)Cn1c(=O)n(Cc2ccccc2)c(=O)c2c(C)c(C(=O)N(C)C)sc21 | 883 nM | 377 nM | > 100 µM |  |
| Cc1cccc(CCNc2cc(C)nc3nc(C)nn23)c1 | 2420 nM | 2290 nM | > 100 µM |  |
| O=C(NC(CN1CCCC1)c1ccccc1)C1CCCCN1S(=O)(=O)c1ccc(Cl)cc1 (stereo unspecified) | 189 nM | 514 nM | 18.6 µM |  |
| COC(=O)CNC(c1ccccc1Cl)c1cc(Br)ccc1NS(=O)(=O)c1ccc(C)cc1 (stereo unspecified) | 1920 nM | 1760 nM | > 100 µM |  |
| CCC(CC)=NNC(=O)C(=O)NC1CCCCC1 | 231 nM | 535 nM | > 10 µM |  |
| CCCOc1ccc(Cc2c(C)nc3ccc(Br)cc3c2O)cc1 | 1030 nM | 1100 nM | > 10 µM |  |
| COC(=O)c1ccc2c(=O)n(Cc3ccc4c(c3)OCO4)c(SCC(=O)n3nc(C)cc3N)nc2c1 | 144 nM | 41.2 nM | > 10 µM |  |
| COc1ccc2[nH]c3c(NCCN4CCCCC4)ncnc3c2c1 | 785 nM | 976 nM | 28.6 µM |  |
| Nc1ccnc2cc(Cl)ccc12 | 415 nM | 57.6 nM | 72 µM |  |
| N#Cc1c(N)nc(SCC(=O)c2ccc([N+](=O)[O-])cc2)c(C#N)c1-c1ccccc1 | 4810 nM | 1840 nM | > 100 µM |  |
| COc1cc(C(=O)OCCC2CCC[N+]3(C)CCCCC23)cc(OC)c1OC (stereo unspecified) | > 12500 nM | 1340 nM | > 100 µM |  |
| N=C(N)NN=Cc1cc(Cl)ccc1O | 12.8 nM |  | > 1.86 µM | No fit |
| COc1ccc(CN2CCc3nc(N4CCCCC4)sc3C2)cc1 | 293 nM | 301 nM | > 10 µM |  |
| O=C(O)c1ccc(S(=O)(=O)c2ccc3c(c2)C(=O)N(c2ccc(Sc4ccc([N+](=O)[O-])cc4)cc2)C3=O)cc1 | > 1250 nM | 2070 nM | > 10 µM |  |
| Fc1ccc(Nc2nc(NCc3ccco3)c3ccccc3n2)cc1 | 191 nM | 101 nM | 12.3 µM |  |
| COc1cc(NC(C)CCCN(Cc2ccccc2OC)C(=O)C(C)C)c2ncccc2c1 (stereo unspecified) | 684 nM | 406 nM | > 7.7 µM |  |
| COc1ccc(C2CC(=O)C3=C(C2)NC(=O)CC3c2ccc(C(F)(F)F)cc2)cc1OC (stereo unspecified) | 182 nM | 123 nM | > 100 µM |  |
| COc1ccc(C2CC(=O)C3=C(C2)NC(C)=C(C(=O)OC2CCCCC2)C3c2ccc([N+](=O)[O-])cc2)cc1OC (stereo unspecified) | 194 nM | 61.7 nM | > 100 µM |  |
| COc1ccc(C2(Cc3ccccc3)NC(=O)NC2=O)cc1 (stereo unspecified) | 1340 nM | > 1220 nM | > 10 µM |  |
| COc1cc(C2C(C(=O)OCC(C)C)=C(C)NC3=C2C(=O)CC(c2ccccc2)C3)cc(Br)c1O (stereo unspecified) | 850 nM | 911 nM | > 100 µM |  |
| CCCN(CC(=O)Nc1cc(C(C)(C)C)nn1-c1cccc(C)c1)C(=O)c1cccc([N+](=O)[O-])c1 | > 1630 nM | 1010 nM | > 10 µM |  |

| Compound | EC50 [1] | EC50 [2, 4] | CC50 [3] | EC50 [2] |
| --- | --- | --- | --- | --- |
| Cc1ccc(NC(c2ccccc2)(c2ccccc2)c2ccccc2)cc1C | 439 nM | 207 nM | > 100 µM |  |
| COC(=O)C1=C(C)NC(=Cc2cc(C)n(-c3ccccc3F)c2C)C1=O | 20 nM | 38.3 nM | > 100 µM |  |
| CCCCN(C(=O)Nc1c(C(C)C)cccc1C(C)C)C(CC)c1nc2ccccc2c(=O)n1-c1cccc(Cl)c1 (stereo unspecified) | > 1250 nM | < 21.2 nM | > 6.29 µM |  |
| Cc1cc(C)n(N=Cc2ccc(Cl)cc2)c(=O)c1C#N | 1070 nM | 183 nM | > 100 µM |  |
| O=C(Cn1c(=O)oc2cc(S(=O)(=O)N3CCCC3)ccc21)Nc1cccnc1 | > 951 nM | 169 nM | > 10 µM |  |
| Cc1ccn2c(NC(C)(C)CC(C)(C)C)c(-c3ccccc3OC(=O)c3ccc(Br)cc3)nc2c1 | 740 nM | 148 nM | 75 µM |  |
| O=C(ON(C(=O)c1ccc(F)cc1)C1C2CC3CC(C2)CC1C3)c1ccc(F)cc1 (stereo unspecified) | > 1250 nM | 26.7 nM | > 10 µM |  |
| O=C1c2cccc3c(C4=NN(c5ccccc5)C(c5ccc(Cl)cc5)C4)ccc(c23)C(=O)N1c1ccccc1 (stereo unspecified) | > 1250 nM | 407 nM | > 10 µM |  |
| CC(=O)Nc1ccc2c(c1)C(=O)N(C(C(=O)NCC(=O)O)C1CCCCC1)[C@@H](CCC(=O)O)C(=O)N2 (stereo partly specified) | > 418 nM | 109 nM | > 10 µM |  |
| C=CC1CN2CCC1CC2C(OC(=O)c1ccco1)c1ccnc2ccccc12 (stereo unspecified) | 35.7 nM | 181 nM | 41.8 µM |  |
| COc1cc(NC(=O)C(F)(F)F)c(C(=O)c2ccc(C(F)(F)F)cc2)cc1OC | 1140 nM | > 1200 nM | > 10 µM |  |
| CC1=C(CO)C(=O)O[C@@H]([C@@H](C)[C@H]2CC[C@H]3[C@@H]4C[C@H]5O[C@]56[C@@H](O)C=CC(=O)[C@]6(C)C4CC[C@]23C)C1 (stereo partly specified) | 4970 nM | 1680 nM | 3.63 µM |  |
| Cc1ccc(Nc2nc3nonc3nc2N(C)C)cc1Cl | > 1460 nM | 1610 nM | > 10 µM |  |
| C=CC1(O)CN2CCC1CC2[C@@H](O)c1ccnc2ccc(OC)cc12 (stereo partly specified) | 105 nM | 264 nM | > 10 µM |  |
| CCCC(=O)O[C@]1(C(=O)CCl)[C@@H](C)C[C@H]2[C@@H]3CCC4=CC(=O)C=C[C@]4(C)[C@@]3(F)C(=O)C[C@@]21C | > 12500 nM | 6080 nM | 80 µM |  |
| CC[n+]1c(C=Cc2ccc(C)cc2)ccc2ccccc21 | 2990 nM | 2700 nM | 20.9 µM |  |
| CCc1nc(N)nc(N)c1-c1ccc(Cl)cc1 [PYRIMETHAMINE] | 31.9 nM | 14.6 nM | 45.6 µM |  |
| O=C(Nc1ccc([N+](=O)[O-])cc1Cl)c1cc(Br)ccc1O | > 12500 nM | 798 nM | 55.6 µM |  |
| CC(=O)N(C1=C(N2CCCCC2)C(=O)c2ccccc2C1=O)c1ccccc1C | 34 nM | 18.1 nM | 20.2 µM |  |
| CCc1c(C)nc2cc(-c3cc(OC)cc(OC)c3)nn2c1NCCCn1ccnc1 | 2870 nM | 185 nM | > 100 µM |  |
| CCN(CC)Cc1cc(Nc2ccnc3cc(Cl)ccc23)ccc1O | 10.3 nM | 13 nM | > 100 µM |  |

| Compound | EC50 [1] | EC50 [2, 4] | CC50 [3] | EC50 [2] |
| --- | --- | --- | --- | --- |
| COc1cc(C=NNC(=O)Cc2nnc(N)s2)ccc1O | > 1250 nM | > 1120 nM | > 12.7 µM |  |
| CC1CNC(c2ccc(NC(=O)c3ccc(C(=O)Nc4ccc(C5=NC(C)CN5)cc4)c(N)c3)cc2)=N1 (stereo unspecified) | 47 nM | 22.2 nM | > 10 µM |  |
| CCc1ccc(C(=O)N(CC(=O)Nc2cc(C(C)(C)C)nn2-c2ccc(Cl)c(Cl)c2)C(C)C)cc1 | 1730 nM | 3860 nM | 87.8 µM |  |
| CC(C)C[C@@H](NC(=O)[C@H](C)NC(=O)CNC(=O)[C@@H](NC=O)C(C)C)C(=O)N[C@@H](C)C(=O)N[C@@H](C(=O)N[C@H](C(=O)N[C@@H](C(=O)N[C@@H](Cc1c[nH]c2ccccc12)C(=O)N[C@H](CC(C)C)C(=O)N[C@@H](Cc1c[nH]c2ccccc12)C(=O)N[C@H](CC(C)C)C(=O)N[C@@H](Cc1c[nH]c2ccccc12)C(=O)N[C@H](CC(C)C)C(=O)N[C@@H](Cc1c[nH]c2ccccc12)C(=O)NCCO)C(C)C)C(C)C)C(C)C (For-VGA[dL]A[dV]V[dV]W[dL]W[dL]W[dL]W-NHCH2CH2OH) | 2890 nM | 2990 nM | 98.8 µM |  |
| Cc1cc(C)cc(Nc2cc(C)nc3nc(C)nn23)c1 | 594 nM | 536 nM | > 100 µM |  |
| CCCCN(CCCC)CC(O)c1cc(-c2ccc(Cl)cc2)nc2cc(Cl)ccc12 (stereo unspecified) | 189 nM | 32.6 nM | > 12.4 µM |  |
| O=C(Cc1ccsc1)NC1CCN(CC(O)CN(Cc2ccccc2)S(=O)(=O)c2ccccc2)C1 (stereo unspecified) | 411 nM | 188 nM | > 10 µM |  |
| Cc1ccc(-c2nnc(Nc3ccc(F)cc3)c3ccccc23)cc1S(=O)(=O)NCC1CCCO1 (stereo unspecified) | 1700 nM | 3110 nM | > 100 µM |  |
| O=c1c2cnn(-c3ccccc3)c2nc(-c2ccccc2F)n1-c1ccc(Br)cc1 | 6790 nM | 1230 nM | > 100 µM |  |
| COC(=O)C1=C(C)Nc2[nH]c(=S)[nH]c(=O)c2C1c1ccccc1F (stereo unspecified) | 1280 nM | > 1650 nM | > 10 µM |  |
| C[N+](C)(C)c1ccc2cc(Br)c3ccccc3c2c1 | 759 nM | 1370 nM | > 10 µM |  |
| CCOC(=O)NN=C1C=C2C=CC3C(CC[C@@]4(C)C3CC3CCCCC34C(C)=O)[C@@]2(C)CC1 (stereo partly specified) | > 902 nM | > 1560 nM | > 10 µM |  |
| CCOC(=O)C1=C(c2ccccc2)N=c2sc(=Cc3cccnc3)c(=O)n2C1c1c(OC)ccc2ccccc12 (stereo unspecified) | 4150 nM | 1550 nM | > 100 µM |  |
| CC(=O)Nc1ccc(S(=O)(=O)N2CCC(c3nc(-c4cccnc4)no3)CC2)cc1 | > 9640 nM | 736 nM | > 100 µM |  |
| CN1CCN=C1c1ccc(NC(=O)c2ccc(C(=O)Nc3ccc(C4=NCCN4C)cc3)cc2)cc1 | 91.1 nM | 12 nM | > 10 µM |  |
| COc1ccc(N2C(=O)[C@@H]3C[C@H]2CN3C(=O)c2cccc(Cn3nc(C)cc3C)c2)cc1Cl | > 1250 nM | 26.7 nM | > 3.8 µM |  |
| CCCCN(CCCC)CC(O)c1cc(Cl)cc2c1-c1ccc(Cl)cc1/C2=C/c1ccc(Cl)cc1 (stereo unspecified) [LUMEFANTRINE] | 777 nM | 518 nM | > 10 µM |  |
| CCCCCCCCCC(=O)Oc1ccccc1-c1nc2cc(C)ccn2c1NC(C)(C)CC(C)(C)C | 1010 nM | 88.8 nM | > 10 µM |  |
| COc1ccc(C=NNc2nc(O)cc(-c3ccccc3)n2)cc1OC | 632 nM | > 1100 nM | > 10 µM |  |
| O=C(c1ccc([N+](=O)[O-])cc1)C1C(C(=O)c2ccc(F)cc2)C2(C(=O)Nc3ccccc32)C2C=Cc3ccccc3N12 (stereo unspecified) | > 622 nM | 188 nM | > 10 µM |  |
